According to US20130231472A1, “USE OF MOLECULAR MARKERS FOR THE PRECLINICAL PROFILING OF INHIBITORS OF ENZYMES HAVING HISTONE DEACETYLASE ACTIVITY” (priority 2002, published 2013):

Columns and labels:
HDAC-2 [1] = experiment: HDAC-2 protein levels in F9 teratocarcinoma cells (Westernblot); type: cell-based, murine
Experimental: FIG. 6: (A) F9 teratocarcinoma or HEK293T embryonic kidney cells were exposed for indicated times to 1 mM VPA. Protein levels of HDAC-2 and HDACs 1 or 3 for reference (HDAC8; N-CoR and Sin3 as data not shown) were determined by Westernblot analysis. […] (C) The effect of other HDAC inhibitors on the amount of HDAC-2 protein was determined by using TSA (100 nM) in a time course analysis in F9 cells (left panel). The HDAC inhibitors TSA (100 nM), trapoxin (TPX, 10 nM), butyrate (1.5 mM) or MS275 (5 μM) were tested at a single time of exposure in HEK293T cells (right panel).

HDAC-2 [2] = experiment: Ubiquitinated proteins in anti HDAC-2 immune precipitates (Westernblot against ubiquitin); type: cell-based; conditions: FIG. 10A
From the text: FIG. 10: (A) The total amount of high molecular weight poly-ubiquitinated protein was not altered by VPA treatment of cells (left two lanes). The presence of ubiquitinated proteins in anti HDAC-2 immune precipitates is shown in the right part of the panel. […] Ubiquitinated proteins in the precipitates were detected by Western blot analysis. For lane N a non-immune serum was used instead of the anti HDAC-2 antibody. (B) The presence of mono- and/or oligo-ubiquitinated HDAC-2 upon VPA treatment of HEK293T cells was determined by ectopic expression of His6-tagged ubiquitin followed by VPA-treatment for 36 h as indicated. The proteasome inhibitor MG-132 was added 4 h prior to analysis to enhance the accumulation of ubiquitinated proteins. Electrophoretic mobility and unaltered presence of non-ubiquitinated HDAC-2 were determined by Westernblot analysis of whole cell extracts (left panel). […] Anti-HDAC-2 immuno-reactive bands with the expected mobility of mono- or poly-ubiquitinated HDAC-2 are indicated by a bracket.

CCCC(CCC)C(=O)O [VPA, Valproic acid]
HDAC-2 protein levels relative to untreated cells (HDAC-2 [1]; 1 mM VPA, 24 h, persists up to 48 h, FIG. 6A (F9 and HEK293T, cell line not given)): about 30%
HDAC-2 protein levels (HDAC-2 [1]; F9 cells, VPA 1 mM, TSA 100 nM up to 48 h): reduced
amount of ubiquitinated protein precipitated with antibody against HDAC-2 (HDAC-2 [2]; VPA 1.5 mM, 24 h, ALLN 5 μM): increase the amount of this anti-ubiquitin reactive protein
overall amount of cellular ubiquitinated proteins (HDAC-2 [2]; VPA treatment): moderately reduced
